Experiment [1] deals with HCT116 p53^−/−. Kind of experiment: Western blot of p53-target proteins, PARP cleavage, HCT116 p53^−/−. Type of experiment: cell-based, human. Conditions: 15.5 μM. How it is done:
FIG. 2 illustrates that SLMP53-1 increases the levels of proteins encoded by p53 target genes (MDM2, p21, PUMA and BAX), and leads to PARP cleavage in colon carcinoma cells with wt p53 (HCT116 p53^+/+), but not in colon carcinoma cells without wt p53 (HCT116 p53^−/−). Western blot analysis was performed for human colon carcinoma cells after 16 (B, D, E) and 24 (A, C, F) hours treatment with 15.5 μM of SLMP53-1, 135 nM doxorubicin (DOXO; positive control) or DMSO only. The protein expression levels were evaluated by quantification of Western Blot band intensity (with Bio-Profile Bio-1D++ software) using GAPDH as loading control.
Background: Immunoblotting shows a protein as a band on a membrane.

The test system of experiment [2] is MDA-MB-231 cells. Kind of experiment: apoptosis by flow cytometry (FITC-Annexin V and propidium iodide), MDA-MB-231. Type of experiment: cell-based, human. To be noted: GI50, 24 hours. How it is done:
Apoptosis was analyzed by flow cytometry using FITC-Annexin V and propidium iodide. The effect of compounds was analyzed after 24 hours treatment using the concentration of GI50. Histograms represent one of two independent experiments; quantification of cells in apoptosis represents the mean±S.E.M. of two independent experiments.

The subject of experiment [3] is HCT116 p53^−/− tumors. Kind of experiment: xenograft mouse model, HCT116 p53^−/− tumors. To be noted: four intraperitoneal injections of 50 mg/kg, preliminary. Type of experiment: in vivo, BALB/c mice. How it is done: FIG. 10 illustrates the antitumor activity of SLMP53-1 in vivo. BALB/c mice, 4-6 weeks old, were implanted subcutaneous xenografts using 1.5×10^6 HCT116 p53^+/+ or HCT116 p53^−/− cells. The treatment was initiated when palpable tumors were established (14 days after the cells were injected), and consisted in 4 intraperitoneal injections (2× per week) of vehicle (control) or 50 mg/kg of SLMP53-1. Xenografts were measured during 24 days. Relative tumor volumes were plotted for control and treated groups by dividing the average tumor volume for each data point by average starting tumor volume.
Currently, the toxicity and antitumor activity of SLMP53-1 are under study in vivo using xenograft mouse models. […] Because p53-null tumors were not suppressed, it was confirmed that SLMP53-1 inhibited the tumor growth in a wt p53-dependent manner.

“Also recorded” adds a separate entry of the source.

In the case of `C[C@]12OC[C@H](Cc3c[nH]c4ccccc34)N1C(=O)c1ccccc12` [SLMP53-1], in experiment [1], the PARP cleavage result was “did not induce PARP cleavage”; the “expression levels of MDM2, p21, PUMA and Bax” value was “did not interfere”. Besides, the apoptosis result in experiment [2] is “induces late apoptosis; also recorded: apoptotic cell death”. Further, the tumor growth result in experiment [3] is listed as “without apparent effects”.
